Assay results from patent US12097252B2, “Formulation of a peptide vaccine” (priority 2016, dated 2024).
Marks after values point to notes of the source that are not given here.

Legend:
[1] = system: RAHYNIVTF-specific CD8^+ T cells; experiment: Strength of T cell response in blood, D^b-[…] tetramer flow cytometry; type: in vivo, C57BL/6 mice; conditions: for % Tm+ of CD8: emulsified 1:1 with Montanide ISA VG51, s.c.; for % CD62L+ KLRG1+ (% of TM+ CD8 T cells) / % CD62L− KLRG1+ (% of TM+ CD8 T cells): Montanide 1:1
Method: On day 9 after vaccination, blood was drawn from the tail vein of all mice. Blood samples were transferred to a 96-wells culture plate and centrifuged for 5 minutes at 1600 rpm. Erythrocytes were lysed by suspending blood cell pellets in Lysis buffer until orange coloration was observed. Subsequently, cells were washed in FACS buffer and stained with the fluorescent antibodies, the D^b-[…]-APC tetramer and 7-AAD mentioned in the Materials section above. After 30 minutes of incubation on ice, cells were washed and analyzed on a BD LSRII flow cytometer in the Leiden University Medical Center (Dept. of Rheumatology).
A study by Van Duikeren et al. (J Immunol, 2012; 189(7): 3397-403) aimed to identify parameters that correlated with the induction of an effective antitumor response. By identifying such biomarkers, different vaccine compositions can be tested in non-tumor bearing mice with prognostic value in tumor models. The authors found a correlation between the expression of KLRG1 and absence of CD62L expression on the one hand and effective antitumor immune responses on the other hand. We determined the percentages of KLRG1- and CD62L-expressing D^b-[…]^+ CD8^+ T cells in the blood of vaccinated mice on day 9 after vaccination using flow cytometry. No difference in percentage of […]-specific KLRG1^+ CD62L^− CD8^+ T cells is observed between groups 3 and 4. Not enough […]-specific CD8+ T cells were detected to reliably study the expression of KLRG1 and CD62L in the groups of mice vaccinated with vehicle only (Group 1 and 2). See Table 10 for the average percentages and standard deviations per group.

[2] = system: TC-1 tumor cells, expressing the oncogenic E6 and E7 proteins of HPV16; experiment: Therapeutic vaccination of mice carrying TC-1 tumors; type: in vivo, C57BL/6 mice
Method: The following groups of mice were included in the study: • Group 1: (n=5) 40% v/v DMSO/WFI emulsified 1:1 with Montanide ISA VG51. • Group 2: (n=5) Reconstitution composition (750 μL 0.1M Citric acid in water, 62.5 μL Propylene Glycol, 125 μL Ethanol and 62.5 μL Cremophor EL per mL) emulsified 1:1 with Montanide ISA VG51. • Group 3: (n=10) SLP […] and 20 μg CpG ODN1826/mouse dissolved in 40% v/v DMSO/WFI, emulsified 1:1 with Montanide ISA VG51. • Group 4: (n=10) SLP […] (SEQ ID NO: 6) and 20 μg CpG ODN1826/mouse dissolved in Reconstitution composition (750 μL 0.1M Citric acid in water, 62.5 μL Propylene Glycol, 125 μL Ethanol and 62.5 μL Cremophor EL per mL), emulsified 1:1 with Montanide ISA VG51.
For mice in Group 1, a solution was prepared by admixing and subsequently swirling 400 μL DMSO and 600 μL WFI. The solution was taken up in a 2 mL Luer-Lock syringe (Syringe A). In another 2 mL Luer-Lock syringe (Syringe B) 1 mL of Montanide ISA VG51 was taken up, after which both syringes were connected to a T-connector. An emulsion was generated by mixing the contents back and forth extensively. After mixing, the syringes were disconnected and a 25 G needle was placed on the syringe containing the emulsion. Per mouse, 100 μL was injected in the left flank subcutaneously.
The vaccine prepared for Group 2 was prepared in an identical manner, only differing by the use of reconstitution composition (750 μL 0.1M citric acid in water and 250 μL PG/EtOH/Cremophor EL 1:2:1, i.e. 0.075M citric acid, 6.25% v/v propylene glycol CAS no. 57-55-6, 12.5% v/v ethanol and 6.25% v/v polyoxyethyleneglyceroltriricinoleate 35 CAS no. 61791-12-6 in water) instead of DMSO and WFI. […]
TC-1 tumor cells, expressing the oncogenic E6 and E7 proteins of HPV16 were cultured in complete IMDM culture medium, supplemented with 400 μg/ml geneticin. […] The tumor size of all mice was monitored at least twice a week using a caliper up to 75 days after tumor challenge.

[3] = Group 3 average: SLP SEQ ID NO: 6 + CpG ODN1826 in 40% v/v DMSO/WFI, blood day 9 after vaccination
[4] = Group 4 average: SLP SEQ ID NO: 6 + CpG ODN1826 in Reconstitution composition, blood day 9 after vaccination

GQAEPDRAHYNIVTFCCKCDSTLRLCVQSTHVDIR [SLP 6]
% Tm+ of CD8 ([1]; Group 3 average: SLP SEQ ID NO: 6 + 20 μg CpG ODN1826/mouse in 40% v/v DMSO/WFI, blood day 9 after vaccination): 1.4%
% CD62L+ KLRG1+ (% of TM+ CD8 T cells) [1, 3]: 4.0%
% CD62L− KLRG1+ (% of TM+ CD8 T cells) [1, 3]: 51.9%
% Tm+ of CD8 ([1]; Group 4 average: SLP SEQ ID NO: 6 + 20 μg CpG ODN1826/mouse in Reconstitution composition (0.1M citric acid/PG/EtOH/Cremophor EL), blood day 9, p < 0.05 vs group 3): 4.8* %
% CD62L+ KLRG1+ (% of TM+ CD8 T cells) [1, 4]: 4.0%
% CD62L− KLRG1+ (% of TM+ CD8 T cells) [1, 4]: 52.2%
percentage of induced D^b-RAYNIVTF (tetramer) positive CD8^+ T cells ([1]; group 4 (Rec. composition+SLP) vs group 3 (DMSO+SLP), p=0.022): enhanced tetramer-positive CD8^+ T cell response
outgrowth of TC-1 tumors ([2]; SLP 6 and CpG1826 in DMSO/WFI or Reconstitution composition, Montanide emulsion, s.c. day 8, monitored up to 75 days): Tumor regression is observed in all mice
overall tumor outgrowth, comparison of formulations ([2]; SLP 6 dissolved in DMSO/WFI vs Reconstitution composition): No differences were observed in overall tumor outgrowth
Kaplan-Meier survival ([2]; SLP-vaccinated groups: DMSO/WFI vs Reconstitution composition): no differences between the vaccinated groups
